# In patent US8361968B2 (Takeda Pharmaceutical Company Limited, priority 2002, dated 2013):
# Numbered stars: 1 amine (or outer) side, 2 acyl side, 3 side chain; on linkers, the order of the positions; unused ones are H or OH. Square brackets hold non-standard residues; d marks the D form. Ends that are not written are not given here. Peptide text beside a SMILES is read from it. * marks the point of attachment. X10 = NC(=O)C[C@@H](C(=O)[*:2])N(C[C@@H](N)Cc1ccc(O)cc1)[*:1]; 2Nal = N[C@@H](Cc1ccc2ccccc2c1)C(=O)O; Arg(Me) = CNC(=N)NCCC[C@H](N)C(=O)O; 4Pal = N[C@@H](Cc1ccncc1)C(=O)O; X3 = NC(=S)[C@H](Cc1ccccc1)N*; azaGly = NNC(=O)O
# Target: hOT7T175 (Homo sapiens, UniProt Q969F8, L364H)
# Experiment: Intracellular Ca ion level-increasing activity using FLIPR in hOT7T175/CHO
# Type: cell-based
# Design: expressed in transfected cells; host or cells: CHO/dhfr- cells, obtained from ATCC
# Conditions: relative, Metastin (1-54) = 1
# hOT7T175, sequence (Q969F8 whole entry L364H): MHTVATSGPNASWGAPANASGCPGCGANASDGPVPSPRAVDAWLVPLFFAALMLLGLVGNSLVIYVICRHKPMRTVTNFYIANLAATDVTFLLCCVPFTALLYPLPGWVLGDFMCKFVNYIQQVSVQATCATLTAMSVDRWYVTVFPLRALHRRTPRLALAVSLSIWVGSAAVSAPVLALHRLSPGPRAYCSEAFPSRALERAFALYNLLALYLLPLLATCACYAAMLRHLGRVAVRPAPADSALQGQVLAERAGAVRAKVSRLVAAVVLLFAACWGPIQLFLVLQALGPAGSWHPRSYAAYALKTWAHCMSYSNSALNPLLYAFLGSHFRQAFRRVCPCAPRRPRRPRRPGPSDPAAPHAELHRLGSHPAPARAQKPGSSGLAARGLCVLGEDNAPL
row,Specific Activity (intracellular Ca ion level-increasing activity),Compound
1,3,"CNC(=N)NCCC[C@H](NC(=O)[C@H](CC(C)C)NC(=O)NNC(=O)[C@H](Cc1ccccc1)NC(=O)[C@H](CO)NC(=O)[C@H](CC(N)=O)NC(=O)[C@H](Cc1ccncc1)NC(=O)[C@@H](CC(N)=O)NC(=O)[C@@H](N)Cc1ccc(O)cc1)C(=O)N[C@@H](Cc1ccccc1)C(N)=O [Compound No. 304, Tyr-D-Asn-Pya(4)-Asn-Ser-Phe-AzaGly-Leu-Arg(Me)-Phe-NH2] (H-Y[dN][4Pal]NSF[azaGly]L[Arg(Me)]F-NH2)"
2,1,"CNC(=N)NCCC[C@H](NC(=O)[C@H](CC(C)C)NC(=O)NNC(=O)[C@H](Cc1ccccc1)NC(=O)[C@H](CO)NC(=O)[C@H](CC(N)=O)NC(=O)[C@H](Cc1c[nH]c2ccccc12)NC(=O)[C@@H](Cc1c[nH]cn1)NC(=O)[C@H](N)Cc1ccc(O)cc1)C(=O)N[C@@H](Cc1ccccc1)C(N)=O [Compound No. 288, D-Tyr-D-His-Trp-Asn-Ser-Phe-AzaGly-Leu-Arg(Me)-Phe-NH2] (H-[dY][dH]WNSF[azaGly]L[Arg(Me)]F-NH2)"
3,1,"CNC(=N)NCCC[C@H](NC(=O)[C@H](CC(C)C)NC(=O)NNC(=O)[C@H](Cc1ccccc1)NC(=O)[C@H](CO)NC(=O)[C@H](CC(N)=O)NC(=O)[C@H](Cc1ccc2ccccc2c1)NC(=O)[C@H](N)Cc1ccc(O)cc1)C(=O)N[C@@H](Cc1ccccc1)C(N)=O [Compound No. 255, D-Tyr-Nal(2)-Asn-Ser-Phe-AzaGly-Leu-Arg(Me)-Phe-NH2] (H-[dY][2Nal]NSF[azaGly]L[Arg(Me)]F-NH2)"
4,5,"CNC(=N)NCCC[C@H](NC(=O)[C@H](CC(C)C)NC(=O)NNC(=O)[C@H](Cc1ccccc1)NC(=O)[C@H](CO)NC(=O)[C@H](CC(N)=O)NC(=O)[C@H](Cc1c[nH]c2ccccc12)NC(=O)[C@H](CC(N)=O)NC[C@@H](N)Cc1ccc(O)cc1)C(=O)N[C@@H](Cc1ccccc1)C(N)=O [Compound No. 299, TyrΨ(CH2NH)Asn-Trp-Asn-Ser-Phe-AzaGly-Leu-Arg(Me)-Phe-NH2] (H-[X10]WNSF[azaGly]L[Arg(Me)]F-NH2)"

# Further lines, the compound ahead of its results:
row,Compound,Specific Activity (intracellular Ca ion level-increasing activity)
1,D-Tyr-Asn-Trp-Ser-Ser-Phe-Gly-Leu-Arg(Me)-Phe-NH2 ([dY]NWSSFGL[Arg(Me)]F-NH2; N-terminus assumed; SMILES CNC(=N)NCCC[C@H](NC(=O)[C@H](CC(C)C)NC(=O)CNC(=O)[C@H](Cc1ccccc1)NC(=O)[C@H](CO)NC(=O)[C@H](CO)NC(=O)[C@H](Cc1c[nH]c2ccccc12)NC(=O)[C@H](CC(N)=O)NC(=O)[C@H](N)Cc1ccc(O)cc1)C(=O)N[C@@H](Cc1ccccc1)C(N)=O) [Compound No. 207],½
2,"CNC(=N)NCCC[C@H](NC(=O)[C@H](CC(C)C)NC(=O)NNC(=O)[C@H](Cc1ccccc1)NC(=O)[C@H](CO)NC(=O)[C@H](CC(N)=O)NC(=O)[C@@H](NC(=O)[C@H](CC(N)=O)NC(=O)[C@H](N)Cc1ccc(O)cc1)C(C)C)C(=O)N[C@@H](Cc1ccccc1)C(N)=O [Compound No. 234, D-Tyr-Asn-Val-Asn-Ser-Phe-AzaGly-Leu-Arg(Me)-Phe-NH2] (H-[dY]NVNSF[azaGly]L[Arg(Me)]F-NH2; N-terminus assumed)",1
3,CNC(=N)NCCC[C@H](NC(=O)[C@H](CC(C)C)NC(=O)CNC(=O)[C@H](Cc1ccccc1)NC(=O)[C@H](C)NC(=O)[C@H](CC(N)=O)NC(=O)[C@H](Cc1c[nH]c2ccccc12)NC(=O)[C@H](CC(N)=O)NC(=O)[C@H](N)Cc1ccc(O)cc1)C(=O)N[C@@H](Cc1ccccc1)C(N)=O [Compound No. 212] (H-[dY]NWNAFGL[Arg(Me)]F-NH2),10
4,CC(C)C[C@H](NC(=O)CNC(=O)[C@H](Cc1ccccc1)NC(=O)[C@H](CO)NC(=O)[C@H](CC(N)=O)NC(=O)[C@H](Cc1c[nH]c2ccccc12)NC(=O)[C@H](CC(N)=O)NC(=O)[C@@H](N)Cc1ccc(O)cc1)C(=O)N[C@@H](CCCNC(=N)N)C(=O)N[C@@H](Cc1ccccc1)C(N)=S [Compound No. 128] (H-YNWNSFGLR-X3),10
